Results from PubChem BioAssay AID2060621 (Molecular Pharmacology Branch, DTP, NCI, 2025).
Several values for one entry are separate records, joined by “and”; a condition that tells them apart may be missing. Equal values may be shown once.

System: 324938-238-R-J1-PDC complex spheroids viability
Assay: Anticancer human tumor 324938-238-R-J1-PDC patient-derived bladder carcinoma cell line growth inhibition [CLK]
Conditions: for viability, T/C: stronger effect = lower value
Text: A high-throughput screen of multi-cell type tumor spheroids was designed to identify active combinations of […] and targeted small molecules. Complex spheroids include a stromal component modeled by human endothelial cells (HUVEC) and fibroblasts modeled by human mesenchymal stem cells (MSCs). The concentration ranges selected for each drug and investigational agent were based upon clinically achievable concentrations if the clinical Cmax of the agent was known.
Compounds. The drugs and investigational agents: cirtuvivint (SM08502; NSC835563), CC-671 (NSC850746), vemurafenib (NSC761431), tapotoclax (NSC804041), sotorasib (NSC818433), adagrasib (NSC831453), MRTX-1133 (NSC836407), BAY2416964 (NSC825713), copanlisib (NSC816437), inavolisib (NSC800729), abemaciclib (NSC768073), osimertinib (NSC779217), entinostat (NSC756642), eltanexor (KPT-8602, NSC794443), venetoclax (NSC766270), ceralasertib (NSC777638), bortezomib (NSC756655), olaparib (NSC753686), talazoparib (NSC767125), alisertib (NSC759677), peposertib (NSC802822), gemcitabine (NSC613327), 5-fluorouracil (NSC19893), SN-38 (NSC673596), oxaliplatin (NSC266046), paclitaxel (NSC125973), and doxorubicin (NSC123127), were obtained from the National Cancer Institute (NCI) Developmental Therapeutics Program Chemical Repository. The FDA-approved anticancer drug set is available from the Developmental Therapeutics Program at https://dtp.cancer.gov/organization/dscb/obtaining/available plates.htm. […] The stock solutions were prepared in dimethyl sulfoxide (DMSO, Sigma-Aldrich, St. Louis, MO, cat. D2650), except for the platinum complexes which were prepared in saline (Quality Biological, Gaithersburg, MD, cat. 114-055-101), at 800-fold the tested concentration and stored at -70 degrees C prior to their use. All drugs and investigational agents were tested over a range starting from a high concentration at or near the clinical Cmax and decreasing in half-log increments. If the clinical Cmax for an agent had not been determined, the highest concentration tested was 10 microM.
Cell Culture. All cells were maintained in an incubator at 37 degrees C and 5% CO2 with 95% humidity. The PDC lines were cultured according to standard operating procedures established by the NCI PDMR. Briefly, all PDCs were thawed and cultured in Matrigel-coated flasks prepared with a working solution of 1X Ham's F-12 nutrient mix, without supplementation (Invitrogen, Waltham, MA, cat. 11765054), 100 U/mL penicillin-streptomycin (Invitrogen, cat. 15140122), and 2.5% Matrigel (Corning Inc., Corning, NY, cat. 354248) for the first three passages. The 947758-054-R-J2-PDC line was cultured in 6B/Colon 1A media, which includes advanced DMEM/F-12 (Thermo Fisher Scientific, cat. 12634028), 10 mM HEPES (Thermo Fisher Scientific, cat. 15630080), 1X GlutaMAX supplement (Thermo Fisher Scientific, cat. 35050061), 0.1 mg/mL primocin (InvivoGen, cat. ant-pm-2), 10% defined fetal bovine serum, heat inactivated (HyClone Laboratories Inc., cat. SH30070.03HI), 1.25 mM N-Acetyl-L-cysteine (Sigma-Aldrich, cat. A9165), 10 mM nicotinamide (Sigma-Aldrich, cat. N0636), 1X B-27 supplement (Thermo Fisher Scientific, cat. 17504044), 1X N-2 supplement (Thermo Fisher Scientific, cat. 17502048), and 10 microM Y-27632 dihydrochloride (Tocris Bioscience, cat. 1254). The 876862-298-R-J1-PDC was cultured in 6E media, which includes all 6B/Colon 1A media components plus 50% L-WRN conditioned media (ATCC, cat. CRL-3276), 50 ng/mL recombinant human EGF recombinant protein (hEGF; Thermo Fisher Scientific, cat. PHG0311), 10 ng/mL recombinant human fibroblast growth factor 10 (hGFG-10; PeproTech, cat. 100-26), 1 ng/mL recombinant human fibroblast growth factor 2 (hFGF-2; PeproTech, cat. 100-18B), and 1 µM prostaglandin E2 (PGE2; Tocris, cat. 2296). The 227483-062-R1-J1-PDC line was cultured in Panc media, containing all 6E components except hFGF-2, with the addition of 500 nM SB-431542 (Selleckchem, cat. S1067) and 10 nM gastrin (Tocris, cat. 3006). […]
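Also: viability read after seven days of drug exposure.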
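For viability, T/C in this document: 100% = DMSO vehicle control wells.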

Row | SMILES | IC50 (curve of compound) | viability, T/C (compound 0.0316 µM) | viability, T/C (compound 0.1 µM) | viability, T/C (compound 0.316 µM) | viability, T/C (compound 1 µM) | viability, T/C (compound 3.16 µM) | viability, T/C (compound 10 µM) | also measured
1 | C#Cc1c(F)ccc2cc(O)cc(-c3ncc4c(N5CC6CCC(C5)N6)nc(OCC56CCCN5CC(F)C6)nc4c3F)c12 (centres undefined) | 2920 nM and 1470 nM | 80% and 86.4% | 69.2% and 79.7% | 56.7% and 70% | 64.9% and 53.9% | 48.4% and 41.9% | 41.9% and 38% | –
2 | C=CC(=O)Nc1cc(Nc2nccc(-c3cn(C)c4ccccc34)n2)c(OC)cc1N(C)CCN(C)C | 58.3 nM and 61.8 nM | – | – | – | – | – | – | viability, T/C (compound 0.000949 µM): 71.7% and 84%; viability, T/C (compound 0.003 µM): 79.8% and 82.5%; viability, T/C (compound 0.00949 µM): 62.2% and 65.2%; viability, T/C (compound 0.03 µM): 69.3% and 61.8%; viability, T/C (compound 0.0949 µM): 36.1% and 45.5%; viability, T/C (compound 0.3 µM): 22.2% and 22.7%
3 | CC(C)CC(NC(=O)C(Cc1ccccc1)NC(=O)c1cnccn1)B(O)O (centres undefined) | 1.23 nM and 1.07 nM | – | – | – | – | – | – | viability, T/C (compound 0.000949 µM): 63.7% and 55.5%; viability, T/C (compound 0.003 µM): 2.77% and 1.54%; viability, T/C (compound 0.00949 µM): 0.22% and 0.18%; viability, T/C (compound 0.03 µM): 0.44% and 0.2%; viability, T/C (compound 0.0949 µM): 0.18% and 0.12%; viability, T/C (compound 0.3 µM): 0.35% and 0.13%
4 | CC(CO)NC(=O)c1cc(-c2ccc(Cl)cc2)nn(-c2cnn(C)c2)c1=O (centres undefined) | 8050 nM and 6340 nM | 84.8% and 86.6% | 92.3% and 81.3% | 71.5% and 73.9% | 78.2% and 76.1% | 60.9% and 59.9% | 47.1% and 42.9% | –
5 | CC(Nc1ccc2c(c1)OCCn1cc(N3C(=O)OCC3C(F)F)nc1-2)C(N)=O (centres undefined) | 91 nM and 128 nM | 67.9% and 69% | 49.2% and 55% | 32% and 34.8% | 25% and 29.9% | 20.4% and 24.6% | 10.8% and 12.4% | –
6 | CC1(C)CCC(CN2CCN(c3ccc(C(=O)NS(=O)(=O)c4ccc(NCC5CCOCC5)c([N+](=O)[O-])c4)c(Oc4cnc5[nH]ccc5c4)c3)CC2)=C(c2ccc(Cl)cc2)C1 | 8810 nM and 4580 nM | 85.9% and 77.8% | 79.9% and 82.2% | 84.2% and 75.7% | 82% and 77.7% | 77.1% and 68.8% | 46.6% and 10.4% | –
7 | CCc1c2c(nc3ccc(O)cc13)-c1cc3c(c(=O)n1C2)COC(=O)[C@]3(O)CC | < 3.16 nM | 10.7% and 11.6% | 10.8% and 13.9% | 7.67% and 11.4% | 2.3% and 1.78% | – | – | viability, T/C (compound 0.00316 µM): 14.5% and 16.4%; viability, T/C (compound 0.01 µM): 10.3% and 12.2%
8 | CN1CCN(c2cc(C(=O)Nc3cc4cc(-c5cnn(C)c5)ccc4cn3)ccn2)CC1 | – | 80.8% [middle of 12 runs] | 54.8% [middle of 12 runs] | 22.3% [middle of 12 runs] | 1.3% [middle of 12 runs] | 0.22% [middle of 5 runs] | 0.22% [middle of 10 runs] | IC50 (compound alone, run of 08/14/2023): 116 nM [middle of 10 runs]
9 | CNC(=O)c1ccc(Nc2nc(OC3CCCC3)c3c(-c4ccc5nc(C)oc5c4)c[nH]c3n2)c(OC)c1 | – | 86% [middle of 12 runs] | 28.1% [middle of 12 runs] | 18.9% [middle of 12 runs] | 15.9% [middle of 12 runs] | 16.8% [middle of 12 runs] | 17.5% [middle of 12 runs] | IC50 (compound alone, run of 08/15/2023): 62.5 nM [middle of 11 runs]
10 | COc1c(OCCCN2CCOCC2)ccc2c3n(c(=NC(=O)c4cnc(N)nc4)nc12)CCN3 | 9.79 nM and 11.5 nM | 30.7% and 33.4% | 15.3% and 19% | 4.22% and 7.44% | 0.44% and 1.03% | – | – | viability, T/C (compound 0.00316 µM): 64.9% and 69.6%; viability, T/C (compound 0.01 µM): 49.7% and 52.5%
11 | Cn1ncnc1[C@H]1c2n[nH]c(=O)c3cc(F)cc(c23)N[C@@H]1c1ccc(F)cc1 | 9.12 nM and 11.8 nM | 37.4% and 33.3% | 28.4% and 24.7% | – | – | – | – | viability, T/C (compound 0.000316 µM): 84.5% and 92.7%; viability, T/C (compound 0.001 µM): 78.8% and 76.2%; viability, T/C (compound 0.00316 µM): 60% and 68.3%; viability, T/C (compound 0.01 µM): 50% and 55.5%
12 | Nc1ccccc1NC(=O)c1ccc(CNC(=O)OCc2cccnc2)cc1 | 1420 nM and 1290 nM | 90% and 75.9% | 89.8% and 91.8% | 83.1% and 73.8% | 58% and 50.5% | 29.4% and 33.5% | 9.64% and 5.66% | –
13 | Nc1ccn(C2OC(CO)C(O)C2(F)F)c(=O)n1 (centres undefined) | < 31.6 nM | 27.6% and 25.4% | 12.5% and 15% | 10.8% and 12.3% | 10.8% and 13.3% | 8.49% and 10.3% | 6.92% and 8.69% | –
14 | O=C(c1cc(Cc2n[nH]c(=O)c3ccccc23)ccc1F)N1CCN(C(=O)C2CC2)CC1 | 4350 nM and 4650 nM | 73.8% and 84.1% | 75.1% and 88.4% | 71.4% and 72.4% | 83.3% and 73.8% | 57% and 60.5% | 31.8% and 31.7% | –
15 | O=c1[nH]cc(F)c(=O)[nH]1 | 159 nM and 223 nM | 83.8% and 80.7% | 66.9% and 79.9% | 24.9% and 37% | 19.4% and 26% | 16.1% and 20.8% | 16.1% and 20.9% | –

More lines, main results first:

Row | IC50 (curve of compound) | SMILES | viability, T/C (compound 0.0316 µM) | viability, T/C (compound 0.1 µM) | viability, T/C (compound 0.316 µM) | viability, T/C (compound 1 µM) | viability, T/C (compound 3.16 µM) | viability, T/C (compound 10 µM) | also measured
16 | 2260 nM and 3580 nM | C=C(F)C(=O)N1CCN(c2nc(OCC3CCCN3C)nc3c2CCN(c2cccc4cccc(Cl)c24)C3)CC1CC#N (centres undefined) | 79.2% and 88% | 88.8% and 85.7% | 89.3% and 88% | 85.3% and 92.6% | 35.5% and 55.8% | 0.27% and 1.96% | –
17 | > 10000 nM | C=CC(=O)N1CCN(c2nc(=O)n(-c3c(C)ccnc3C(C)C)c3nc(-c4c(O)cccc4F)c(F)cc23)C(C)C1 (centres undefined) | 79.1% and 96.4% | 91.3% and 85% | 85.2% and 93.5% | 102% and 99.9% | 105% and 99.1% | 87.9% and 86.4% | –
18 | 1780 nM and 1440 nM | CC1COCCN1c1cc(C2(S(C)(=N)=O)CC2)nc(-c2ccnc3[nH]ccc23)n1 (centres undefined) | 85.2% and 72.7% | 86.7% and 79% | 73.1% and 77.7% | 68.5% and 59.5% | 33.5% and 27.7% | 14.9% and 13% | –
19 | > 10000 nM and 8670 nM | CCCS(=O)(=O)Nc1ccc(F)c(C(=O)c2c[nH]c3ncc(-c4ccc(Cl)cc4)cc23)c1F | 80.8% and 83% | 96.9% and 88.4% | 102% and 90.1% | 115% and 101% | 111% and 94.9% | 55% and 44.1% | –
20 | 59.4 nM and 60.2 nM | CCN1CCN(Cc2ccc(Nc3ncc(F)c(-c4cc(F)c5nc(C)n(C(C)C)c5c4)n3)nc2)CC1 | 60% and 54.8% | 41.8% and 48.6% | 37% and 36.6% | 36.5% and 46.5% | – | – | viability, T/C (compound 0.00316 µM): 74.7% and 81.3%; viability, T/C (compound 0.01 µM): 69.6% and 74.1%
21 | 227 nM and 160 nM | COC1C=CCC(C)C(C)S(=O)(=O)NC(=O)c2ccc3c(c2)N(CC2CCC21)CC1(CCCc2cc(Cl)ccc21)CO3 (centres undefined) | 73.8% and 71.3% | 78.3% and 65.3% | 39.4% and 28.4% | 21% and 21.4% | 17.9% and 14.6% | 10.5% and 7.78% | –
22 | 45.5 nM and 43.6 nM | NC(=O)C(=Cn1cnc(-c2cc(C(F)(F)F)cc(C(F)(F)F)c2)n1)c1cncnc1 | – | – | – | – | – | – | viability, T/C (compound 0.00949 µM): 70.3% and 65.1%; viability, T/C (compound 0.03 µM): 56.4% and 61.5%; viability, T/C (compound 0.0949 µM): 37.4% and 29.3%; viability, T/C (compound 0.3 µM): 12.4% and 14%; viability, T/C (compound 0.949 µM): 5.43% and 5.85%; viability, T/C (compound 3 µM): 3.14% and 2.78%
